The target in this assay is T1, Human DPP4 (Homo sapiens, UniProt P27487).
T1 construct: purchased Sigma-Aldrich MAK088
Put plainly: DPP4 activity assay (DPP4 Activity Assay Kit, fluorescent substrate). To be noted: Human DPP4; read-out: DPP4 inhibition IC50 [nM]). Format: biochemical. On the procedure: DPP4 activity assay. Human DPP4 activity assay data were obtained using a DPP4 Activity Assay Kit (Sigma-Aldrich, MAK088) according to the manufacturer's instructions. Briefly, 10 μL of DPP4 Assay Buffer were transferred per well in low volume 384-well plates before transferring 10 μL of test compound dissolved in DPP4 assay buffer. To each well was added 5 μL of Master Reaction Mix containing a fluorescent substrate that becomes fluorescent upon cleavage by the enzyme. Fluorescence intensity measurements were recorded at 1-minute time intervals over the course of 20 minutes using an Envision Multimode Plate Reader (PerkinElmer).

Counter-ions that a name gives are not always drawn. A value given as a limit tells only on which side of the number the result lay.

T1 sequence (P27487 whole entry): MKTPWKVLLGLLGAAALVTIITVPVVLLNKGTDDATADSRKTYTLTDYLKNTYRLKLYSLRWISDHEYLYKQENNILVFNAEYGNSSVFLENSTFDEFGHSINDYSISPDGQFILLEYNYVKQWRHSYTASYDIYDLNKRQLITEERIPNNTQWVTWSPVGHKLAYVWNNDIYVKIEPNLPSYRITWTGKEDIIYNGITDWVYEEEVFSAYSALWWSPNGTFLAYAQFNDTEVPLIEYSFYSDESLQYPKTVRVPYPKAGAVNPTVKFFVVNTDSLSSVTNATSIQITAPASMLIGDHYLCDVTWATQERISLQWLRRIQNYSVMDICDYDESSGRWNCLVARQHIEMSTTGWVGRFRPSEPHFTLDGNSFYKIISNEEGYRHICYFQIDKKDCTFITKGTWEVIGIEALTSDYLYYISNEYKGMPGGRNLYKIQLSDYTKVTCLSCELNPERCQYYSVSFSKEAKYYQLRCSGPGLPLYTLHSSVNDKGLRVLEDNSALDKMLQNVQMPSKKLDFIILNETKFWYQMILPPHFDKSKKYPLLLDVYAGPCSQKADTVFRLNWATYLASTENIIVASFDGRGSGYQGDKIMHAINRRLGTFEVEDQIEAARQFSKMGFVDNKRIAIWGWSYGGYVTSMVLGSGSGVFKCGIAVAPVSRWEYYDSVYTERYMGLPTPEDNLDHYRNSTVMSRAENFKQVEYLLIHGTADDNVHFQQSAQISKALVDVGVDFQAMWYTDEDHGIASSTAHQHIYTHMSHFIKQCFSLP

By IC50 is commonly meant the concentration needed to halve the response being measured. For `CCCCCCN(Cc1cn(CCOCCOCCOC23CC4CC(CC(NCC(=O)N5CCC[C@H]5C#N)(C4)C2)C3)nn1)C[C@H](O)[C@@H](O)[C@H](O)[C@H](O)CO` [Compound 8, (2S)-1-(((1S,3R,5S)-3-(2-(2-(2-(4-((hexyl((2S,3R,4R,5R)-2,3,4,5,6-pentahydroxyhexyl)amino)methyl)-1H-1,2,3-triazol-1-yl)ethoxy)ethoxy)ethoxy)adamantan-1-yl)glycyl)pyrrolidine-2-carbonitrile], the IC50 was determined as 14.2 nM. For `N#C[C@@H]1CCCN1C(=O)CN[C@@]12CC3C[C@@H](C1)C[C@](OCCOCCn1cc(CN(C[C@H](O)[C@@H](O)[C@H](O)[C@H](O)CO)C[C@H](O)[C@@H](O)[C@H](O)[C@H](O)CO)nn1)(C3)C2` [Compound 9, (2S)-1-(((1S,3R,5S)-3-(2-(2-(4-((bis((2S,3R,4R,5R)-2,3,4,5,6-pentahydroxyhexyl)amino)methyl)-1H-1,2,3-triazol-1-yl)ethoxy)ethoxy)adamantan-1-yl)glycyl)pyrrolidine-2-carbonitrile], the IC50 came to 10.8 nM. `N#C[C@@H]1CCCN1C(=O)CN[C@@]12CC3C[C@@H](C1)C[C@](OCCOCCN(C[C@H](O)[C@@H](O)[C@H](O)[C@H](O)CO)C[C@H](O)[C@@H](O)[C@H](O)[C@H](O)CO)(C3)C2` [Compound 10, (2S)-1-(((1S,3R,5S)-3-(2-(2-(bis((2S,3R,4R,5R)-2,3,4,5,6-pentahydroxyhexyl)amino)ethoxy)ethoxy)adamantan-1-yl)glycyl)pyrrolidine-2-carbonitrile]: the IC50 was found to be 20.8 nM.

As to `CCN(Cc1ccc(CNC(=O)OCCOCCO[C@@]23CC4C[C@@H](C[C@@](NCC(=O)N5CCC[C@H]5C#N)(C4)C2)C3)cc1)C[C@H](O)[C@@H](O)[C@H](O)[C@H](O)CO` [Compound 12, 2-(2-(((1R,3S,5S)-3-((2-((S)-2-cyanopyrrolidin-1-yl)-2-oxoethyl)amino)adamantan-1-yl)oxy)ethoxy)ethyl (4-((ethyl((2S,3R,4R,5R)-2,3,4,5,6-pentahydroxyhexyl)amino)methyl)benzyl)carbamate], the half-maximal inhibitory concentration (IC50) was found to be 7.9 nM. The value for `N#C[C@@H]1CCCN1C(=O)CN[C@@]12CC3C[C@@H](C1)C[C@](OCCOCCn1cc(CNC[C@H](O)[C@@H](O)[C@H](O)[C@H](O)CO)nn1)(C3)C2` [Compound 14, (2S)-1-(((1S,3R,5S)-3-(2-(2-(4-((((2S,3R,4R,5R)-2,3,4,5,6-pentahydroxyhexyl)amino)methyl)-1H-1,2,3-triazol-1-yl)ethoxy)ethoxy)adamantan-1-yl)glycyl)pyrrolidine-2-carbonitrile] was 8.2 nM; that for `CCCCCCN(Cc1cn(CCOCCOC23CC4CC(CC(NCC(=O)N5CCC[C@H]5C#N)(C4)C2)C3)nn1)C[C@H](O)[C@@H](O)[C@H](O)[C@H](O)CO` [Compound 15] was 17.4 nM; that for `N#C[C@@H]1C[C@@H]2C[C@@H]2N1C(=O)[C@@H](N)[C@]12CC3C[C@H](C[C@](OCCO)(C3)C1)C2` [Compound 16, (1S,3S,5S)-2-((2S)-2-amino-2-((1S,3R,5S)-3-(2-hydroxyethoxy)adamantan-1-yl)acetyl)-2-azabicyclo[3.1.0]hexane-3-carbonitrile] was 7.9 nM. Then `N#C[C@@H]1C[C@@H]2C[C@@H]2N1C(=O)[C@@H](N)C12CC3C[C@H](CC(OCCOC(=O)CNc4ccc(CN(CCO)CCO)cc4)(C3)C1)C2` [Compound 18], with 12 nM; and `CCCCCCN(Cc1cn(CCOCCOC23CC4C[C@H](C2)CC([C@H](N)C(=O)N2[C@H](C#N)C[C@@H]5C[C@@H]52)(C4)C3)nn1)C[C@H](O)[C@@H](O)[C@H](O)[C@H](O)CO` [Compound 20], with 47.8 nM; and `CCCCCCN(Cc1cn(CCOCCOCCOC23CC4CC(C2)CC([C@H](N)C(=O)N2[C@H](C#N)C[C@@H]5C[C@@H]52)(C4)C3)nn1)C[C@H](O)[C@@H](O)[C@H](O)[C@H](O)CO` [Compound 21], with 7.7 nM.

As for `CCN(Cc1ccc(CNC(=O)OCCO[C@]23CC4C[C@H](C2)C[C@@]([C@H](N)C(=O)N2[C@H](C#N)C[C@@H]5C[C@@H]52)(C4)C3)cc1)C[C@H](O)[C@@H](O)[C@H](O)[C@H](O)CO` [Compound 23, 2-(((1R,3S,5S)-3-((S)-1-amino-2-((1S,3S,5S)-3-cyano-2-azabicyclo[3.1.0]hexan-2-yl)-2-oxoethyl)adamantan-1-yl)oxy)ethyl (4-((ethyl((2S,3R,4R,5R)-2,3,4,5,6-pentahydroxyhexyl)amino)methyl)benzyl)carbamate Formate], the 50% inhibitory concentration (IC50) amounted to 4.2 nM. The value for `CC#CCn1c(N2CCC[C@@H](N)C2)nc2c1c(=O)n(Cc1ccccc1B(O)O)c(=O)n2C` [Compound 27, (R)-(2-((8-(3-aminopiperidin-1-yl)-7-(but-2-yn-1-yl)-3-methyl-2,6-dioxo-2,3,6,7-tetrahydro-1H-purin-1-yl)methyl)phenyl)boronic Acid] was 5.3 nM; that for `CC#CCn1c(N2CCC[C@@H](N)C2)nc2c1c(=O)n(Cc1ccc(C(=O)O)cc1)c(=O)n2C` [Compound 28] was 10.5 nM; that for `CC#CCn1c(N2CCC[C@@H](N)C2)nc2c1c(=O)n(Cc1nc(F)ccc1C(=O)O)c(=O)n2C` [Compound 29] was 7.1 nM. Then `CC#CCn1c(N2CCC[C@@H](N)C2)nc2c1c(=O)n(Cc1nc(F)ccc1C(=O)OCCCCCC)c(=O)n2C` [Compound 30, hexyl (R)-2-((8-(3-aminopiperidin-1-yl)-7-(but-2-yn-1-yl)-3-methyl-2,6-dioxo-2,3,6,7-tetrahydro-1H-purin-1-yl)methyl)-6-fluoronicotinate], with above 1000 nM. The value for `CC#CCn1c(N2CCC[C@@H](N)C2)nc2c1c(=O)n(Cc1nc(NC)ccc1C(=O)O)c(=O)n2C` [Compound 31] was 11.4 nM; that for `CC#CCn1c(N2CCC[C@@H](N)C2)nc2c1c(=O)n(Cc1nc(NC)ccc1C(=O)OCCCCCC)c(=O)n2C` [Compound 32, hexyl (R)-2-((8-(3-aminopiperidin-1-yl)-7-(but-2-yn-1-yl)-3-methyl-2,6-dioxo-2,3,6,7-tetrahydro-1H-purin-1-yl)methyl)-6-(methylamino)nicotinate] was above 1000 nM; that for `CC#CCn1c(N2CCC[C@@H](N)C2)nc2c1c(=O)n(Cc1nc(NCCCC)ccc1C(=O)O)c(=O)n2C` [Compound 33] was 11.4 nM. As for `CC#CCn1c(N2CCC[C@@H](N)C2)nc2c1c(=O)n(Cc1nc(NCCCCCCCn3cc(CN(C[C@H](O)[C@@H](O)[C@H](O)[C@H](O)CO)C[C@H](O)[C@@H](O)[C@H](O)[C@H](O)CO)nn3)ccc1C(=O)OC)c(=O)n2C` [Compound 34, methyl 2-((8-((R)-3-aminopiperidin-1-yl)-7-(but-2-yn-1-yl)-3-methyl-2,6-dioxo-2,3,6,7-tetrahydro-1H-purin-1-yl)methyl)-6-((7-(4-((bis((2S,3R,4R,5R)-2,3,4,5,6-pentahydroxyhexyl)amino)methyl)-1H-1,2,3-triazol-1-yl)heptyl)amino)nicotinate], the IC50 is 41 nM.

The values above are taken from patent US20240174675A1, “SMALL MOLECULE REGULATORS OF ALVEOLAR TYPE 2 CELL PROLIFERATION FOR THE TREATMENT OF PULMONARY DISEASES” (THE SCRIPPS RESEARCH INSTITUTE, priority 2021, published 2024).
